Experimental data as given in article PMC5218480 (PLoS ONE, 2017).

Tested on: MV-4-11 cells
Experiment: Gene expression microarray analysis (Affymetrix PrimeView) and GSEA
Type: cell-based, human
Parameters: RFU PODN (11730768_x_at) / Fold change /veh PODN (11730768_x_at) / RFU LINC00158 (11744669_a_at) / Fold change /veh LINC00158 (11744669_a_at) / RFU DUSP10 (11751237_a_at) / Fold change /veh DUSP10 (11751237_a_at) / RFU ID3 (11757404_x_at) / Fold change /veh ID3 (11757404_x_at) / RFU PLEKHG5 (11737974_s_at) / Fold change /veh PLEKHG5 (11737974_s_at) / RFU LRRC4B (11730491_at) / Fold change /veh LRRC4B (11730491_at) / RFU GIMAP4 (11747438_a_at) / Fold change /veh GIMAP4 (11747438_a_at) / RFU KRT8 (11758183_x_at) / Fold change /veh KRT8 (11758183_x_at) / RFU CNN1 (11734310_a_at) / Fold change /veh CNN1 (11734310_a_at) / RFU VPS37D (11726825_at) / Fold change /veh VPS37D (11726825_at) / RFU C10orf10 (11716522_x_at) / Fold change /veh C10orf10 (11716522_x_at) / RFU KIR2DL2 /// KIR2DL4 /// KIR2DL5A /// KIR2DL5B /// KIR2DS1 /// KIR2DS2 /// KIR2DS3 /// KIR2DS4 /// KIR3DL3 /// KIR3DL3 /// KIR3DS1 (11738374_at) / Fold change /veh KIR2DL2 /// KIR2DL4 /// KIR2DL5A /// KIR2DL5B /// KIR2DS1 /// KIR2DS2 /// KIR2DS3 /// KIR2DS4 /// KIR3DL3 /// KIR3DL3 /// KIR3DS1 (11738374_at) / RFU C1QL1 (11718748_at) / Fold change /veh C1QL1 (11718748_at) / RFU TMPRSS4 (11747572_a_at) / Fold change /veh TMPRSS4 (11747572_a_at) / RFU HAMP (11756126_x_at) / Fold change /veh HAMP (11756126_x_at) / RFU RNFT2 (11725882_a_at) / Fold change /veh RNFT2 (11725882_a_at) / RFU NR4A2 (11747474_a_at) / Fold change /veh NR4A2 (11747474_a_at) / RFU ABCC12 (11746883_a_at) / Fold change /veh ABCC12 (11746883_a_at) / RFU TMEM136 (11760407_x_at) / Fold change /veh TMEM136 (11760407_x_at) / RFU CLDN22 /// WWC2 (11732394_at) / Fold change /veh CLDN22 /// WWC2 (11732394_at) / RFU HLA-DPB1 (11760878_x_at) / Fold change /veh HLA-DPB1 (11760878_x_at) / RFU SPINT1 (11716480_a_at) / Fold change /veh SPINT1 (11716480_a_at) / RFU GAP43 (11754022_s_at) / Fold change /veh GAP43 (11754022_s_at) / RFU A4GNT (11735810_at) / Fold change /veh A4GNT (11735810_at) / RFU PRB3 (11715151_x_at) / Fold change /veh PRB3 (11715151_x_at) / RFU TUBB4B (11761932_at) / Fold change /veh TUBB4B (11761932_at) / RFU CAPN14 (11732068_a_at) / Fold change /veh CAPN14 (11732068_a_at) / RFU TMCC2 (11721928_a_at) / Fold change /veh TMCC2 (11721928_a_at) / RFU IRGQ (11745062_a_at) / Fold change /veh IRGQ (11745062_a_at) / RFU FAM174B (11720279_a_at) / Fold change /veh FAM174B (11720279_a_at) / RFU TMPRSS4 (11748680_a_at) / Fold change /veh TMPRSS4 (11748680_a_at) / RFU FAM212B (11763350_a_at) / Fold change /veh FAM212B (11763350_a_at) / RFU PLEKHG5 (11743358_a_at) / Fold change /veh PLEKHG5 (11743358_a_at) / RFU ZSCAN30 (11745921_a_at) / Fold change /veh ZSCAN30 (11745921_a_at) / RFU CMKLR1 (11741424_a_at) / Fold change /veh CMKLR1 (11741424_a_at) / RFU LOC101060620 /// MAPK8IP1 (11723275_at) / Fold change /veh LOC101060620 /// MAPK8IP1 (11723275_at) / RFU SPTSSB (11747773_x_at) / Fold change /veh SPTSSB (11747773_x_at) / RFU PRSS12 (11739890_at) / Fold change /veh PRSS12 (11739890_at) / RFU BIN1 (11741810_x_at) / Fold change /veh BIN1 (11741810_x_at) / RFU WNT11 (11732464_a_at) / Fold change /veh WNT11 (11732464_a_at) / RFU C10orf10 (11716521_a_at) / Fold change /veh C10orf10 (11716521_a_at) / RFU C5orf56 (11738089_at) / Fold change /veh C5orf56 (11738089_at) / RFU CYB561 (11721691_x_at) / Fold change /veh CYB561 (11721691_x_at) / RFU ANKRD19P (11752326_a_at) / Fold change /veh ANKRD19P (11752326_a_at) / RFU OR2T12 /// OR2T33 /// OR2T8 (11738714_s_at) / Fold change /veh OR2T12 /// OR2T33 /// OR2T8 (11738714_s_at) / RFU VCAN (11748164_a_at) / Fold change /veh VCAN (11748164_a_at) / RFU JSRP1 (11732532_at) / Fold change /veh JSRP1 (11732532_at) / RFU KRTAP10-11 (11738290_x_at) / Fold change /veh KRTAP10-11 (11738290_x_at) / RFU MYO3A (11730013_a_at) / Fold change /veh MYO3A (11730013_a_at) / RFU EBF3 (11725865_a_at) / Fold change /veh EBF3 (11725865_a_at) / RFU CAMK2N1 (11719241_x_at) / Fold change /veh CAMK2N1 (11719241_x_at) / RFU C5orf56 (11738088_a_at) / Fold change /veh C5orf56 (11738088_a_at) / RFU OLFML3 (11715873_a_at) / Fold change /veh OLFML3 (11715873_a_at) / RFU LOC100653217 /// NTM (11731650_a_at) / Fold change /veh LOC100653217 /// NTM (11731650_a_at) / RFU MAPK11 (11762145_a_at) / Fold change /veh MAPK11 (11762145_a_at) / RFU FIZ1 (11724087_x_at) / Fold change /veh FIZ1 (11724087_x_at) / RFU OASL (11726364_x_at) / Fold change /veh OASL (11726364_x_at) / RFU SOX15 (11748057_x_at) / Fold change /veh SOX15 (11748057_x_at) / RFU CD79A (11719716_a_at) / Fold change /veh CD79A (11719716_a_at) / RFU HIST1H1D (11736915_at) / Fold change /veh HIST1H1D (11736915_at) / RFU CASKIN2 (11723855_a_at) / Fold change /veh CASKIN2 (11723855_a_at) / RFU LOC730098 (11760151_x_at) / Fold change /veh LOC730098 (11760151_x_at) / RFU OR4N2 (11742367_at) / Fold change /veh OR4N2 (11742367_at) / RFU PRRT2 (11749266_a_at) / Fold change /veh PRRT2 (11749266_a_at) / RFU SNX32 (11753110_a_at) / Fold change /veh SNX32 (11753110_a_at) / RFU CDHR5 (11726645_a_at) / Fold change /veh CDHR5 (11726645_a_at) / RFU RCAN1 (11760418_a_at) / Fold change /veh RCAN1 (11760418_a_at) / RFU FAM167A (11723789_a_at) / Fold change /veh FAM167A (11723789_a_at) / RFU FAM26E (11764081_at) / Fold change /veh FAM26E (11764081_at) / RFU ISYNA1 (11749810_s_at) / Fold change /veh ISYNA1 (11749810_s_at) / RFU ACY1 (11761880_at) / Fold change /veh ACY1 (11761880_at) / RFU 11764098_at / Fold change /veh 11764098_at / RFU SAMD14 (11745864_x_at) / Fold change /veh SAMD14 (11745864_x_at) / RFU NPB (11741838_a_at) / Fold change /veh NPB (11741838_a_at) / RFU TMPRSS6 (11731388_a_at) / Fold change /veh TMPRSS6 (11731388_a_at) / RFU KRTAP10-2 (11738614_at) / Fold change /veh KRTAP10-2 (11738614_at) / RFU ARHGAP8 /// PRR5-ARHGAP8 (11727945_x_at) / Fold change /veh ARHGAP8 /// PRR5-ARHGAP8 (11727945_x_at) / RFU KRTAP5-7 /// NADSYN1 (11734609_at) / Fold change /veh KRTAP5-7 /// NADSYN1 (11734609_at) / RFU RASL12 (11751679_a_at) / Fold change /veh RASL12 (11751679_a_at) / RFU CDKN2B (11736163_a_at) / Fold change /veh CDKN2B (11736163_a_at) / RFU PRF1 (11729649_at) / Fold change /veh PRF1 (11729649_at) / RFU, ZNF638 /// ZNF638-IT1 / Fold change vs veh, ZNF638 /// ZNF638-IT1 / RFU, PANK3 / Fold change vs veh, PANK3 / RFU, SH3YL1 / Fold change vs veh, SH3YL1 / RFU, ZEB2 / Fold change vs veh, ZEB2 / RFU, NRIP1 / Fold change vs veh, NRIP1 / RFU, PTTG1IP / Fold change vs veh, PTTG1IP / RFU, CAPN2 / Fold change vs veh, CAPN2 / RFU, MED14 / Fold change vs veh, MED14 / RFU, SNORA58 / Fold change vs veh, SNORA58 / RFU, C1orf63 / Fold change vs veh, C1orf63 / RFU, LRRFIP1 / Fold change vs veh, LRRFIP1 / RFU, NDUFAF7 / Fold change vs veh, NDUFAF7 / RFU, SLC12A2 / Fold change vs veh, SLC12A2 / RFU, IBTK / Fold change vs veh, IBTK / RFU, ESF1 / Fold change vs veh, ESF1 / Fold change vs veh, TMEM50B / RFU, TAOK1 / Fold change vs veh, TAOK1 / RFU, ACBD3 / Fold change vs veh, ACBD3 / RFU, TMA16 / Fold change vs veh, TMA16 / RFU, RWDD3 / Fold change vs veh, RWDD3 / RFU, BCAT1 / Fold change vs veh, BCAT1 / RFU, EDEM3 / Fold change vs veh, EDEM3 / RFU, TMEM33 / Fold change vs veh, TMEM33 / RFU, WDR75 / Fold change vs veh, WDR75 / RFU, AHCTF1 / Fold change vs veh, AHCTF1 / RFU, TFRC / Fold change vs veh, TFRC / RFU, ZDHHC17 / Fold change vs veh, ZDHHC17 / RFU, NOM1 / Fold change vs veh, NOM1 / RFU, ARL8B / Fold change vs veh, ARL8B / RFU, ZBTB11 / Fold change vs veh, ZBTB11 / RFU, TAMM41 / Fold change vs veh, TAMM41 / RFU, KIAA1704 /// LOC100996395 / Fold change vs veh, KIAA1704 /// LOC100996395 / RFU, ING1 / Fold change vs veh, ING1 / RFU, TRMT61B / Fold change vs veh, TRMT61B / RFU, FUBP3 / Fold change vs veh, FUBP3 / RFU, TP53 / Fold change vs veh, TP53 / RFU, TNKS2 / Fold change vs veh, TNKS2 / RFU, ZFP14 / Fold change vs veh, ZFP14 / RFU, ACTR2 / Fold change vs veh, ACTR2 / RFU, PPP3R1 / Fold change vs veh, PPP3R1 / RFU, PIK3R1 / Fold change vs veh, PIK3R1 / RFU, HNRNPA1 / Fold change vs veh, HNRNPA1 / RFU, RNF170 / Fold change vs veh, RNF170 / RFU, ZNF28 / Fold change vs veh, ZNF28 / RFU, RNGTT / Fold change vs veh, RNGTT / RFU, OGT / Fold change vs veh, OGT / RFU, BRD1 / Fold change vs veh, BRD1 / RFU, MARS / Fold change vs veh, MARS / RFU, ZNF655 / Fold change vs veh, ZNF655 / RFU, FAHD1 / Fold change vs veh, FAHD1 / RFU, BDP1 / Fold change vs veh, BDP1 / RFU, LRRCC1 / Fold change vs veh, LRRCC1 / RFU, ARID1A / Fold change vs veh, ARID1A / RFU, ZNF146 / Fold change vs veh, ZNF146 / RFU, ZNF330 / Fold change vs veh, ZNF330 / RFU, GPN3 / Fold change vs veh, GPN3 / RFU, C9orf123 / Fold change vs veh, C9orf123 / RFU, N4BP2L2 / Fold change vs veh, N4BP2L2 / RFU, ARFIP1 / Fold change vs veh, ARFIP1 / RFU, FAM179B / Fold change vs veh, FAM179B / RFU, BCL10 / Fold change vs veh, BCL10 / RFU, UHRF1BP1L / Fold change vs veh, UHRF1BP1L / RFU, BET1 / Fold change vs veh, BET1 / RFU, CNOT2 / Fold change vs veh, CNOT2 / RFU, ZNF268 / Fold change vs veh, ZNF268 / Fold change vs veh, ZNF507 / RFU, DGCR2 / Fold change vs veh, DGCR2 / RFU, WDSUB1 / Fold change vs veh, WDSUB1 / Fold change vs veh, HSP90B1 /// MIR3652 / RFU, ADSS / Fold change vs veh, ADSS / RFU, GK / Fold change vs veh, GK / RFU, ZNF148 / Fold change vs veh, ZNF148 / RFU, TAF9 / Fold change vs veh, TAF9 / RFU, SLC1A5 / Fold change vs veh, SLC1A5 / RFU, SLMO2 / Fold change vs veh, SLMO2 / RFU, ABCC4 / Fold change vs veh, ABCC4 / RFU, LOC101060439 /// RAP1B / Fold change vs veh, LOC101060439 /// RAP1B / RFU, RFX7 / Fold change vs veh, RFX7 / RFU, GTPBP10 / Fold change vs veh, GTPBP10 / RFU, CNEP1R1 / Fold change vs veh, CNEP1R1 / RFU, BIVM-ERCC5 /// ERCC5 / Fold change vs veh, BIVM-ERCC5 /// ERCC5 / RFU, ILF3 / Fold change vs veh, ILF3 / RFU 11762660_at / Fold change /veh 11762660_at / RFU VCAN (11757783_s_at) / Fold change /veh VCAN (11757783_s_at) / RFU DDX43 (11728927_at) / Fold change /veh DDX43 (11728927_at) / RFU KRT8 (11758188_x_at) / Fold change /veh KRT8 (11758188_x_at) / RFU NKD1 (11759106_at) / Fold change /veh NKD1 (11759106_at) / RFU SRD5A1 (11742802_a_at) / Fold change /veh SRD5A1 (11742802_a_at) / RFU TPSAB1 /// TPSB2 (11721975_s_at) / Fold change /veh TPSAB1 /// TPSB2 (11721975_s_at) / RFU GSTM3 (11746129_a_at) / Fold change /veh GSTM3 (11746129_a_at) / RFU IL23R (11737362_x_at) / Fold change /veh IL23R (11737362_x_at) / RFU TMEM51 (11727254_a_at) / Fold change /veh TMEM51 (11727254_a_at) / RFU PIWIL2 (11732686_x_at) / Fold change /veh PIWIL2 (11732686_x_at) / RFU ORM1 (11744905_x_at) / Fold change /veh ORM1 (11744905_x_at) / RFU CCDC152 (11743942_at) / Fold change /veh CCDC152 (11743942_at) / RFU ECM1 (11717891_a_at) / Fold change /veh ECM1 (11717891_a_at) / RFU IL23R (11748794_a_at) / Fold change /veh IL23R (11748794_a_at) / RFU TNFAIP8L3 (11732012_x_at) / Fold change /veh TNFAIP8L3 (11732012_x_at) / RFU MBOAT4 (11741988_at) / Fold change /veh MBOAT4 (11741988_at) / RFU 11764193_at / Fold change /veh 11764193_at / RFU TMEM53 (11763286_at) / Fold change /veh TMEM53 (11763286_at) / RFU MAGEB2 (11727129_at) / Fold change /veh MAGEB2 (11727129_at) / RFU TMEM200A (11744735_a_at) / Fold change /veh TMEM200A (11744735_a_at) / RFU CCDC152 (11751479_a_at) / Fold change /veh CCDC152 (11751479_a_at) / RFU FAM211A (11726209_a_at) / Fold change /veh FAM211A (11726209_a_at) / RFU RGS16 (11746705_a_at) / Fold change /veh RGS16 (11746705_a_at) / RFU VCAN (11755009_s_at) / Fold change /veh VCAN (11755009_s_at) / RFU RHOB (11743442_s_at) / Fold change /veh RHOB (11743442_s_at) / RFU RGS16 (11720943_a_at) / Fold change /veh RGS16 (11720943_a_at) / RFU RGS16 (11720944_at) / Fold change /veh RGS16 (11720944_at) / RFU, VPS4B / Fold change vs veh, VPS4B / RFU, CREB1 / Fold change vs veh, CREB1 / RFU, DNAJC13 / Fold change vs veh, DNAJC13 / RFU, GNAQ / Fold change vs veh, GNAQ / RFU, CDK5R1 / Fold change vs veh, CDK5R1 / RFU, ZRANB3 / Fold change vs veh, ZRANB3 / RFU, CUL4A / Fold change vs veh, CUL4A / RFU, CCNY / Fold change vs veh, CCNY / RFU, UFL1 / Fold change vs veh, UFL1 / RFU, COG3 / Fold change vs veh, COG3 / RFU, DIAPH2 / Fold change vs veh, DIAPH2 / RFU, SKA2 / Fold change vs veh, SKA2 / RFU, AFF3 / Fold change vs veh, AFF3 / RFU, LMF1 / Fold change vs veh, LMF1 / RFU, IPO11 / Fold change vs veh, IPO11 / RFU, DFFB / Fold change vs veh, DFFB / RFU, FOXP1 / Fold change vs veh, FOXP1 / RFU, CARD8 / Fold change vs veh, CARD8 / RFU, STRN3 / Fold change vs veh, STRN3 / RFU, ADK / Fold change vs veh, ADK / RFU, RASSF2 / Fold change vs veh, RASSF2 / RFU, WIPF1 / Fold change vs veh, WIPF1 / RFU, LARP1B / Fold change vs veh, LARP1B / RFU, RASA1 / Fold change vs veh, RASA1 / RFU, RB1 / Fold change vs veh, RB1 / RFU, PPFIA1 / Fold change vs veh, PPFIA1 / RFU, MAT2A / Fold change vs veh, MAT2A / RFU, CCT5 / Fold change vs veh, CCT5 / RFU, WDR92 / Fold change vs veh, WDR92 / RFU, CUX1 / Fold change vs veh, CUX1 / RFU, TTC7A / Fold change vs veh, TTC7A / RFU, TMEM135 / Fold change vs veh, TMEM135 / RFU, DEPTOR / Fold change vs veh, DEPTOR / RFU, CPM / Fold change vs veh, CPM / RFU, DNAJB6 / Fold change vs veh, DNAJB6 / RFU, CACNA2D3 / Fold change vs veh, CACNA2D3 / RFU, DTX4 / Fold change vs veh, DTX4 / RFU, TFCP2 / Fold change vs veh, TFCP2 / RFU, GMCL1 /// GMCL1P1 / Fold change vs veh, GMCL1 /// GMCL1P1 / RFU, AEBP2 / Fold change vs veh, AEBP2 / RFU, SNHG1 /// SNORD22 /// SNORD25 /// SNORD26 /// SNORD27 /// SNORD28 /// SNORD29 /// SNORD31 / Fold change vs veh, SNHG1 /// SNORD22 /// SNORD25 /// SNORD26 /// SNORD27 /// SNORD28 /// SNORD29 /// SNORD31 / Fold change (Aza/veh), C12orf56 (ProbeSet 11735607_a_at) / Fold change (ACY-1035/veh), C12orf56 (ProbeSet 11735607_a_at) / Fold change (Aza/veh), FGFR1OP (ProbeSet 11751329_s_at) / Fold change (ACY-1035/veh), FGFR1OP (ProbeSet 11751329_s_at) / Fold change (Aza/veh), VPS36 (ProbeSet 11739960_a_at) / Fold change (ACY-1035/veh), VPS36 (ProbeSet 11739960_a_at) / RFU SYPL1 (11715823_x_at) / Fold change /veh SYPL1 (11715823_x_at) / RFU IGFBP7 (11715501_s_at) / Fold change /veh IGFBP7 (11715501_s_at) / RFU REEP3 (11722064_at) / Fold change /veh REEP3 (11722064_at) / RFU IGLL1 (11728026_x_at) / Fold change /veh IGLL1 (11728026_x_at): dose or concentration left out as unconfirmed
Settings: MV-4-11 cells, 48 hours

Structure (SMILES): Nc1ncn([C@@H]2O[C@H](CO)[C@@H](O)[C@H]2O)c(=O)n1 [azacitidine]
- Fold change /veh C5orf56 (11738089_at): 1.15
